# Results: patent US7947741B2, “Use and administration of bacterial efflux pump inhibitors” (Mpex Pharmaceuticals, Inc., priority 2004, dated 2011)
# What was measured:
# [1] = test system: P. aeruginosa PAM1570 (MexEF-OprN; gyrA (Thr83Ile)); test: microbe, parasite or virus in culture; type: cell-based, Pseudomonas aeruginosa; settings: PAM1570
# Source text: (§1) In addition to increased efflux, resistance to fluoroquinolones may be due to target mutations (gyrase and topoisimerase IV) or due to combination of these two resistance mechanisms in a single bacterial cell.
# [2] = test system: P. aeruginosa PAM1569 (MexCD-OprJ; gyrA (Thr83Ile)); test: microbe, parasite or virus in culture; type: cell-based, Pseudomonas aeruginosa; settings: PAM1569
# Source text: as §1
# [3] = test system: P. aeruginosa PAM1482 (MexCD-OprJ; gyrA (Asp87Tyr)); test: microbe, parasite or virus in culture; type: cell-based, Pseudomonas aeruginosa; settings: PAM1482
# Source text: as §1
# [4] = test system: P. aeruginosa PAM1032 (MexAB-OprM); test: microbe, parasite or virus in culture; type: cell-based, Pseudomonas aeruginosa; settings: PAM1032
# Source text: as §1
# [5] = test system: P. aeruginosa PAM1033 (MexCD-OprJ); test: microbe, parasite or virus in culture; type: cell-based, Pseudomonas aeruginosa; settings: PAM1033
# Source text: as §1
# [6] = test system: P. aeruginosa PAM1020 (pump status none; target mutation none); test: microbe, parasite or virus in culture; type: cell-based, Pseudomonas aeruginosa; settings: PAM1020
# Source text: as §1
# [7] = test system: P. aeruginosa PAM1491 (MexEF-OprN; gyrA (Asp87Tyr)); test: microbe, parasite or virus in culture; type: cell-based, Pseudomonas aeruginosa; settings: PAM1491
# Source text: as §1
# [8] = test system: P. aeruginosa PAM1034 (MexEF-OprN); test: microbe, parasite or virus in culture; type: cell-based, Pseudomonas aeruginosa; settings: PAM1034
# Source text: as §1
# [9] = test system: P. aeruginosa PAM1548 (pump status none; gyrA (Thr83Ile)); test: microbe, parasite or virus in culture; type: cell-based, Pseudomonas aeruginosa; settings: PAM1548
# Source text: as §1
# Pneumocystis carini = settings: cited from earlier work
# [10] = test system: P. aeruginosa PAM1723 (nalB, overexpressing MexAB-OprM); test: microbe, parasite or virus in culture; type: cell-based, Pseudomonas aeruginosa
# Method: (§2) Stock solutions were further diluted, according to the needs of a particular assay, in Mueller Hinton Broth (MHB). Stock solution was stored at −80° C.
# (§3) The checkerboard assay was performed in microtiter plates. […] The result of these manipulations is that each well of the microtiter plate contains a unique combination of concentrations of the two agents. The assay was performed in MHB with a final bacterial inoculum of 5×10^5 CFU/ml (from an early-log phase culture). Microtiter plates were incubated during 20 h at 35° C. and were read using a microtiterplate reader (Molecular Devices) at 650 nm as well as visual observation using a microtiter plate reading mirror.
# (§4) The test organisms used was PAM1020, which is a wild type strain of P. aeruginosa expressing the basal level of MexAB-OprM, as well as PAM1723, PAM1738, and PAM1753, overexpressing the MexAB-OprM, MexCD-OprJ, and MexEF-OprN pump, respectively.
# Efflux pump inhibitory activity of several commercially available diamidine analogs was evaluated using the checkerboard assay of Example 1 against the strain of P. aeruginosa overexpressing the MexAB-OprM efflux pump.
# [11] = test system: P. aeruginosa PAM2466 (MexAB-OprM, MexXY-OprM); test: microbe, parasite or virus in culture; type: cell-based, Pseudomonas aeruginosa; settings: PAM2466
# Method: (§5) A set of strains that simultaneously over-expressed pairs or triplicates of pumps, e.g. PAM2302 and PAM2303 was tested. Simultaneous over-expression of efflux pumps has been recently detected in clinical strains.
# [12] = test system: P. aeruginosa PAM2282 (MexAB-OprM, MexEF-OprN); test: microbe, parasite or virus in culture; type: cell-based, Pseudomonas aeruginosa; settings: PAM2282
# Method: as §5
# [13] = test system: P. aeruginosa PAM2281 (MexAB-OprM, MexEF-OprN); test: microbe, parasite or virus in culture; type: cell-based, Pseudomonas aeruginosa; settings: PAM2281
# Method: as §5
# [14] = test system: P. aeruginosa PAM2302 (MexAB-OprM, MexCD-OprJ, MexEF-OprN); test: microbe, parasite or virus in culture; type: cell-based, Pseudomonas aeruginosa; settings: PAM2302
# Method: as §5
# [15] = isethionate salt; cited from earlier work
# [16] = target: MexAB-OprM-mediated efflux of Leu-Nap, PAM1723 cells (Pseudomonas aeruginosa, UniProt P52002); test: Leu-Nap accumulation assay; type: cell-based
# [17] = test system: P. aeruginosa PAM1753 (nfxC, overexpressing MexEF-OprN); test: Levofloxacin potentiation checkerboard assay (broth microdilution); type: cell-based, Pseudomonas aeruginosa; settings: for Levofloxacin MIC in the presence of inhibitor: PAM1753
# Method: as §2, §3, §4
# [18] = test system: P. aeruginosa PAM1020 (wt, basal level of MexAB-OprM); test: as above; type: cell-based, Pseudomonas aeruginosa
# Method: as §2, §3, §4
# Sequence of MexAB-OprM-mediated efflux of Leu-Nap, PAM1723 cells (Q51487 18-485): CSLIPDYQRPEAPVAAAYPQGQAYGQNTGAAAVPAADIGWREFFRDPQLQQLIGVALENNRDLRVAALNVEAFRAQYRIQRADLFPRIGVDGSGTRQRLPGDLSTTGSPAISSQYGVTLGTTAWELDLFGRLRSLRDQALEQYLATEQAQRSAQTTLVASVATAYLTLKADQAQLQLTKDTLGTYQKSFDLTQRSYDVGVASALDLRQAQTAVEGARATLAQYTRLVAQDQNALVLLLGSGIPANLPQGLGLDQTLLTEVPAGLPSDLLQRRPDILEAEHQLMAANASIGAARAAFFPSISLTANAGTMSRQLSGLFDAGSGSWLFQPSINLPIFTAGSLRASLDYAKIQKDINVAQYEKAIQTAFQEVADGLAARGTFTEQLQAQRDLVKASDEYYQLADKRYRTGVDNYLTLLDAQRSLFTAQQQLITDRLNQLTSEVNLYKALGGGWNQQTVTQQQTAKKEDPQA
# Sequence of MexAB-OprM-mediated efflux of Leu-Nap, PAM1723 cells (P52002 whole entry): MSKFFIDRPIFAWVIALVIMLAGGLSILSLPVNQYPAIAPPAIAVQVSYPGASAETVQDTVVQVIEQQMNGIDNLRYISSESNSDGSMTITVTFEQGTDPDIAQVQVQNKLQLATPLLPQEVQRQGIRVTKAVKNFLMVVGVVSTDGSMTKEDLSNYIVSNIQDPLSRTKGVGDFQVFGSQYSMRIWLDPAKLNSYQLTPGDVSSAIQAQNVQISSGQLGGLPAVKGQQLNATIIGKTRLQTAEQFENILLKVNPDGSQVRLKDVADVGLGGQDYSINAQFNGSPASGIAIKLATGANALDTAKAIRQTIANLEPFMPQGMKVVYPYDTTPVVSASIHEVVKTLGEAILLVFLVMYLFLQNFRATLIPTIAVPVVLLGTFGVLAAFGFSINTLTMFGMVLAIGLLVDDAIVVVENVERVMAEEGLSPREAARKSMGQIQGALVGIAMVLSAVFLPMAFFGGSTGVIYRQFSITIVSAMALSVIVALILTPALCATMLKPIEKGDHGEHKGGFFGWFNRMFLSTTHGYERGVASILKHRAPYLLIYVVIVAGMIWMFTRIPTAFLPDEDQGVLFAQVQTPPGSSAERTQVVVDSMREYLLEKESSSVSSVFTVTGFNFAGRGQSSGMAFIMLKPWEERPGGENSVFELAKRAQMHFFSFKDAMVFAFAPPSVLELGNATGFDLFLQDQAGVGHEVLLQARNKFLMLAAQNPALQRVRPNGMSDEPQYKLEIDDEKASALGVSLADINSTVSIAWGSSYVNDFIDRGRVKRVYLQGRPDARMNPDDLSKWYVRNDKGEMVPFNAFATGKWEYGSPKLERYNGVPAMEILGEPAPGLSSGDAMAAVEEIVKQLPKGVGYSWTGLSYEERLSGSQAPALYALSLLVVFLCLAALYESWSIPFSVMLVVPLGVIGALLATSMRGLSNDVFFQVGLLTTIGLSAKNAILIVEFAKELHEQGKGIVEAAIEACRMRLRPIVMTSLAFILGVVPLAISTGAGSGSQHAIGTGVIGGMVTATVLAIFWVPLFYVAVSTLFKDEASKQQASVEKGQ
# Sequence of MexAB-OprM-mediated efflux of Leu-Nap, PAM1723 cells (P52477 24-383, further chain): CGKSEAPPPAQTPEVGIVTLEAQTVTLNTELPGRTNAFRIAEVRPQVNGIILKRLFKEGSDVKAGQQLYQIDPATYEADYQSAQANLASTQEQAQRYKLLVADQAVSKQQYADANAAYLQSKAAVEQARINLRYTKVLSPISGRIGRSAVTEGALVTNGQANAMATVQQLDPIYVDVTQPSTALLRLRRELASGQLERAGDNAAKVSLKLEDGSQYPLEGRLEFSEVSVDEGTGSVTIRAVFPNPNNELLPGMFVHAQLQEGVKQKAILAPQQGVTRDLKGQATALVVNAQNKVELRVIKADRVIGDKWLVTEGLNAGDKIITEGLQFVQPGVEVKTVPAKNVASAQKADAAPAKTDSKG
smiles,measurement,setting,value
"N=C(N)c1ccc(OCCCCCOc2ccc(C(=N)N)cc2)cc1 [Pentamidine, pentamidine]",Ciprofloxacin MIC w/pentamidine at 20 μg/ml,[1],2 µg/mL
same,Levofloxacin MIC w/pentamidine at 20 μg/ml,[1],2 µg/mL
same,Ciprofloxacin MIC w/pentamidine at 20 μg/ml,[2],4 µg/mL
same,Levofloxacin MIC w/pentamidine at 20 μg/ml,[2],4 µg/mL
same,Ciprofloxacin MIC w/pentamidine at 20 μg/ml,[3],2 µg/mL
same,Levofloxacin MIC w/pentamidine at 20 μg/ml,[3],1 µg/mL
same,Ciprofloxacin MIC w/pentamidine at 20 μg/ml,[4],0.06 µg/mL
same,Levofloxacin MIC w/pentamidine at 20 μg/ml,[4],0.125 µg/mL
same,Ciprofloxacin MIC w/pentamidine at 20 μg/ml,[5],0.25 µg/mL
same,Levofloxacin MIC w/pentamidine at 20 μg/ml,[5],0.25 µg/mL
same,Ciprofloxacin MIC w/pentamidine at 20 μg/ml,[6],0.015 µg/mL
same,Levofloxacin MIC w/pentamidine at 20 μg/ml,[6],0.03 µg/mL
same,Ciprofloxacin MIC w/pentamidine at 20 μg/ml,[7],1 µg/mL
same,Levofloxacin MIC w/pentamidine at 20 μg/ml,[7],2 µg/mL
same,Ciprofloxacin MIC w/pentamidine at 20 μg/ml,[8],0.06 µg/mL
same,Levofloxacin MIC w/pentamidine at 20 μg/ml,[8],0.125 µg/mL
same,Ciprofloxacin MIC w/pentamidine at 20 μg/ml,[9],0.5 µg/mL
same,Levofloxacin MIC w/pentamidine at 20 μg/ml,[9],0.25 µg/mL
same,In vitro inhibitory activity,Pneumocystis carini,0.3 µg/mL
same,Levofloxacin MIC in the presence of inhibitor,"[10]; PAM1723, inhibitor 1.25 μg/ml",2 µg/mL
same,Levofloxacin MIC in the presence of inhibitor,"[10]; PAM1723, inhibitor 2.5 μg/ml",1 µg/mL
same,Levofloxacin MIC in the presence of inhibitor,"[10]; PAM1723, inhibitor 5 μg/ml",1 µg/mL
same,Levofloxacin MIC in the presence of inhibitor,"[10]; PAM1723, inhibitor 10 μg/ml",0.5 µg/mL
same,Levofloxacin MIC in the presence of inhibitor,"[10]; PAM1723, inhibitor 10 μg/ml, listed as Pentamidine MP 601205",1 µg/mL
same,Levofloxacin MIC in the presence of inhibitor,"[10]; PAM1723, inhibitor 20 μg/ml",0.25 µg/mL
same,Levofloxacin MIC in the presence of inhibitor,"[10]; PAM1723, inhibitor 40 μg/ml",0.06 µg/mL
same,Levofloxacin MIC in the presence of inhibitor,"[10]; PAM1723, inhibitor 80 μg/ml",0.007 µg/mL
same,MIC* (MIC for the efflux pump inhibitor),"[10]; PAM1723, inhibitor alone, listed as Pentamidine MP 601205",>81 µg/mL
same,decrease of levofloxacin MIC,"[10]; PAM1723, pentamidine at 20 μg/ml",8 fold
same,MIC,"[10]; Pseudomonas aeruginosa, read-out: MIC* (MIC for the efflux pump inhibitor), PAM1723, inhibitor alone",> 80 µg/mL
same,reduction of the levofloxacin MIC of PAM1723 (2 μg/ml),[10]; inhibitor at 10 μg/ml to 20 μg/ml,at least 8 fold
same,Ciprofloxacin MIC w/pentamidine at 20 μg/ml,[11],0.06 µg/mL
same,Levofloxacin MIC w/pentamidine at 20 μg/ml,[11],0.125 µg/mL
same,Ciprofloxacin MIC w/pentamidine at 20 μg/ml,[12],0.125 µg/mL
same,Levofloxacin MIC w/pentamidine at 20 μg/ml,[12],0.25 µg/mL
same,Ciprofloxacin MIC w/pentamidine at 20 μg/ml,[13],0.25 µg/mL
same,Levofloxacin MIC w/pentamidine at 20 μg/ml,[13],0.25 µg/mL
same,Ciprofloxacin MIC w/pentamidine at 20 μg/ml,[14],0.25 µg/mL
same,Levofloxacin MIC w/pentamidine at 20 μg/ml,[14],0.25 µg/mL
same,solubility,[15],"soluble in water and glycerin and insoluble in ether, acetone, and chloroform"
same,inhibitor concentration at which rate of Leu-Nap uptake in PAM1723 and PAM1626 is the same (complete inhibition of efflux),[16]; Leu-Nap 100 μg/ml,40 µg/mL
same,mode of inhibition,[16]; dependence on Leu-Nap substrate concentration,uncompetitive inhibition
same,pentamidine required for complete inhibition of the pump,"[16]; external Leu-Nap 60 μg/ml, fluorescence change in 30 min",80 µg/mL
same,pentamidine required to completely inhibit MexAB-OprM-mediated efflux,"[16]; external Leu-Nap 120 μg/ml, fluorescence change in 30 min",20 µg/mL
same,Levofloxacin MIC in the presence of inhibitor,[17]; inhibitor 1.25 μg/ml,2 µg/mL
same,Levofloxacin MIC in the presence of inhibitor,[17]; inhibitor 2.5 μg/ml,2 µg/mL
same,Levofloxacin MIC in the presence of inhibitor,[17]; inhibitor 5 μg/ml,2 µg/mL
same,Levofloxacin MIC in the presence of inhibitor,[17]; inhibitor 10 μg/ml,1 µg/mL
same,Levofloxacin MIC in the presence of inhibitor,[17]; inhibitor 20 μg/ml,0.25 µg/mL
same,MIC,"[17]; Pseudomonas aeruginosa, read-out: MIC* (MIC for the efflux pump inhibitor)",40 µg/mL
same,decrease of levofloxacin MIC,"[18]; PAM1020 (wild type), pentamidine at 20 μg/ml",8 fold
same,Levofloxacin MIC in the presence of inhibitor,"[18]; PAM1020, inhibitor 1.25 μg/ml",0.25 µg/mL
same,Levofloxacin MIC in the presence of inhibitor,"[18]; PAM1020, inhibitor 2.5 μg/ml",0.25 µg/mL
same,Levofloxacin MIC in the presence of inhibitor,"[18]; PAM1020, inhibitor 5 μg/ml",0.125 µg/mL
same,Levofloxacin MIC in the presence of inhibitor,"[18]; PAM1020, inhibitor 10 μg/ml",0.06 µg/mL
same,Levofloxacin MIC in the presence of inhibitor,"[18]; PAM1020, inhibitor 20 μg/ml",0.03 µg/mL
same,Levofloxacin MIC in the presence of inhibitor,"[18]; PAM1020, inhibitor 40 μg/ml",0.015 µg/mL
same,MIC,"[18]; Pseudomonas aeruginosa, PAM1020, inhibitor alone, read-out: MIC* (MIC for the efflux pump inhibitor)",80 µg/mL
